How the values were obtained:
Assay type in all cases: cell-based, mice
B cells = test: Proliferation of LPS-stimulated B cells; settings: 10 μM
IL-10 [1] = test: IL-10 production by ConA-stimulated T cells; settings: 10 μM, 72 h
Description: (§1) Peritoneal macrophage or splenocytes (lymphocytes and macrophage) were harvested from donor mice using standard techniques. Cells were placed in culture and stimulated with either LPS (10 μg/mL) or concanavalin A 5 μg/mL (Sigma Chemical Co., St Louis, Mo.) in RPMI-1640 medium supplemented with antibiotics, […] 2-mercaptoethanol, 10 mm HEPES buffer and 10% fetal calf serum (FCS) (see Holan et al., 1985) to stimulate macrophage and T-cells respectively. Compounds were added from DMSO stock solutions to a final concentration of 50 μM or less with DMSO not exceeding 1% of total volume. After 72 h, cell supernatant was recovered and the cytokine levels were estimated by ELISA. The effect of compounds on cytokine production was recorded as follows: […]

T cells = test: Proliferation of Con A-stimulated T cells; settings: 10 μM
Description: as §1

IFN-g = IFN-g production by ConA-stimulated T cells; settings: 10 μM, 72 h
Description: as §1

IL-6 = IL-6 production by LPS-stimulated macrophages; settings: 10 μM, 72 h
Description: as §1

IL-2 = IL-2 production by ConA-stimulated T cells; settings: 10 μM, 72 h
Description: as §1

NO = NO production by LPS-stimulated macrophages; settings: 10 μM, 72 h
IL-10 [2] = test: IL-10 production by LPS-stimulated murine peritoneal macrophage (ELISA); settings: for IL-10 by ELISA, % of solvent treated control: murine peritoneal macrophage; for IL-10 (LPS, Macrophages), amount of cytokine: 10 μM, 72 h
Description: as §1

SMILES	Proliferation (LPS, B cells) (B cells)	IL-10 (ConA, T cells), amount of cytokine (IL-10 [1])	Proliferation (Con A, T cells) (T cells)	IFN-g (ConA, T cells), amount of cytokine (IFN-g)	IL-6 (LPS, Macrophages), amount of cytokine (IL-6)	IL-2 (ConA, T cells), amount of cytokine (IL-2)	NO (LPS, Macrophages), % of control treated with solvent alone (NO)	IL-10 by ELISA, % of solvent treated control (IL-10 [2]; 2 μM inhibitor in medium)	IL-10 by ELISA, % of solvent treated control (IL-10 [2]; 10 μM inhibitor in medium)	IL-10 (LPS, Macrophages), amount of cytokine (IL-10 [2])	IL-10 by ELISA, % of solvent treated control (IL-10 [2]; 50 μM inhibitor in medium)
CC[C@H]1OC(=O)[C@H](C)[C@@H](O[C@H]2C[C@@](C)(OC)[C@@H](O)[C@H](C)O2)[C@H](C)[C@@H](O[C@@H]2O[C@H](C)C[C@H](N(C)CCCC(=O)OCC(O)CSc3nc(-c4ccc(F)cc4)c(-c4ccnc(NC5CCOCC5)c4)[nH]3)[C@H]2O)[C@](C)(O)C[C@@H](C)CN(C)[C@H](C)[C@@H](O)[C@]1(C)O (stereo partly shown) [Compound 43b]	−3 % of control treated with solvent alone	−2 % of control treated with solvent alone	−2 % of control treated with solvent alone	0 % of control treated with solvent alone	94 % of control treated with solvent alone	0 % of control treated with solvent alone	31 % of control treated with solvent alone	27 % of solvent treated control	−4 % of solvent treated control	−4 % of control treated with solvent alone	−4 % of solvent treated control
CC[C@H]1OC(=O)[C@H](C)[C@@H](O)[C@H](C)[C@@H](O[C@@H]2O[C@H](C)C[C@H](N(C)CCCC(=O)OCC(O)CSc3nc(-c4ccc(F)cc4)c(-c4ccnc(NC5CCOCC5)c4)[nH]3)[C@H]2O)[C@](C)(O)C[C@@H](C)CN(C)[C@H](C)[C@@H](O)[C@]1(C)O (stereo partly shown) [Compound 43c]	2 % of control treated with solvent alone	25 % of control treated with solvent alone	113 % of control treated with solvent alone	72 % of control treated with solvent alone	95 % of control treated with solvent alone	90 % of control treated with solvent alone	82 % of control treated with solvent alone	18 % of solvent treated control	7 % of solvent treated control	7 % of control treated with solvent alone	−4 % of solvent treated control
CCC(C)Nc1cc(-c2[nH]c(SCC(O)COC(=O)CCCN(C)[C@H]3C[C@@H](C)O[C@@H](O[C@@H]4[C@@H](C)[C@H](O[C@H]5C[C@@](C)(OC)[C@@H](O)[C@H](C)O5)[C@@H](C)C(=O)O[C@H](CC)[C@@](C)(O)[C@H](O)[C@@H](C)N(C)C[C@H](C)C[C@@]4(C)O)[C@@H]3O)nc2-c2ccc(F)cc2)ccn1 (stereo partly shown) [Compound 43d]	−3 % of control treated with solvent alone	−2 % of control treated with solvent alone	−2 % of control treated with solvent alone	3 % of control treated with solvent alone	95 % of control treated with solvent alone	0 % of control treated with solvent alone	52 % of control treated with solvent alone	15 % of solvent treated control	−4 % of solvent treated control	−4 % of control treated with solvent alone	−4 % of solvent treated control
CCC(C)Nc1cc(-c2[nH]c(SCC(O)COC(=O)CCCN(C)[C@H]3C[C@@H](C)O[C@@H](O[C@@H]4[C@@H](C)[C@H](O)[C@@H](C)C(=O)O[C@H](CC)[C@@](C)(O)[C@H](O)[C@@H](C)N(C)C[C@H](C)C[C@@]4(C)O)[C@@H]3O)nc2-c2ccc(F)cc2)ccn1 (stereo partly shown) [Compound 43e]	−3 % of control treated with solvent alone	−2 % of control treated with solvent alone	−1 % of control treated with solvent alone	0 % of control treated with solvent alone	29 % of control treated with solvent alone	0 % of control treated with solvent alone	1 % of control treated with solvent alone	−4 % of solvent treated control	−4 % of solvent treated control	−4 % of control treated with solvent alone	−4 % of solvent treated control
CC[C@H]1OC(=O)[C@H](C)[C@@H](O[C@H]2C[C@@](C)(OC)[C@@H](O)[C@H](C)O2)[C@H](C)[C@@H](O[C@@H]2O[C@H](C)C[C@H](N(C)CCCC(=O)OCC(O)CSc3nc(-c4ccc(F)cc4)c(-c4ccnc(NC(C)C)c4)[nH]3)[C@H]2O)[C@](C)(O)C[C@@H](C)CN(C)[C@H](C)[C@@H](O)[C@]1(C)O (stereo partly shown) [Compound 43f]	−6 % of control treated with solvent alone	0 % of control treated with solvent alone	−8 % of control treated with solvent alone	61 % of control treated with solvent alone	30 % of control treated with solvent alone	-1 % of control treated with solvent alone	2 % of control treated with solvent alone	−1 % of solvent treated control	−10 % of solvent treated control	−10 % of control treated with solvent alone	27 % of solvent treated control
